Experiments:
[1] = test system: ABUTH (Abutilon theophrasti); assay: Postemergence herbicidal evaluation; type: in vivo, Medic.
In short: (§1)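 Seedlings grown for about two weeks were sprayed postemergence and then kept under standard greenhouse care. Injury was rated visually 4–5 weeks after treatment on a 0–9 scale against untreated controls, and ratings from repeat tests were averaged.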

[2] = test system: AMBEL (Ambrosia artemisifolia); assay: Postemergence herbicidal evaluation; type: in vivo, L.
In short: as §1

[3] = test system: CASOB (Cassia obtusifolia); assay: Postemergence herbicidal evaluation; type: in vivo, L.
In short: as §1

[4] = test system: CHEAL (Chenopodium album); assay: Postemergence herbicidal evaluation; type: in vivo, L.
In short: as §1

[5] = test system: GALAP (Galium aparine); assay: Postemergence herbicidal evaluation; type: in vivo
In short: as §1

[6] = test system: IPOHE (Ipomoea hederacea); assay: Postemergence herbicidal evaluation; type: in vivo, (L.) Jacq.
In short: as §1

[7] = test system: GLXMAW (Soybean, Williams); assay: Postemergence herbicidal evaluation; type: in vivo, Glycine max, (L.) Merr. cv Williams
In short: as §1

[8] = test system: ORYSAT (Rice, Tebonnet); assay: Postemergence herbicidal evaluation; type: in vivo, Oryza sativa, (L.) Tebonnet
In short: as §1

[9] = test system: ZEAMX (Corn, Field); assay: Postemergence herbicidal evaluation; type: in vivo, Zea mays, L.
In short: as §1

[10] = test system: GALAP (Galium aparine); assay: Preemergence herbicidal evaluation; type: in vivo; details: preemergence, rated 4-5 weeks after treatment
In short: (§2)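 Test compound is applied in aqueous acetone to cups just after seeding. Cups are watered and maintained on greenhouse benches. Each cup is scored 0–9 by eye relative to a control after four to five weeks.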

[11] = test system: ECHCG (Echinochloa crus-galli); assay: Preemergence herbicidal evaluation; type: in vivo, (L.) Beau; details: preemergence, rated 4-5 weeks after treatment
In short: as §2

[12] = test system: SETVI (Setaria viridis); assay: Preemergence herbicidal evaluation; type: in vivo, (L.) Beau; details: preemergence, rated 4-5 weeks after treatment
In short: as §2

[13] = test system: ORYSAT (Rice, Tebonnet); assay: Preemergence herbicidal evaluation; type: in vivo, Oryza sativa, (L.) Tebonnet; details: preemergence, rated 4-5 weeks after treatment
[14] = test system: TRZAWR (Wheat, Winter, cv Riband); assay: Preemergence herbicidal evaluation; type: in vivo, Triticum aestivum; details: preemergence, rated 4-5 weeks after treatment
In short: as §2

## Cc1cccnc1-c1nsc2ccc(-n3c(=O)cc(C(F)(F)F)n(C)c3=O)cc12 [Compound 19, 1-methyl-3-[3-(3-methyl-2-pyridyl)-1,2-benzisothiazol-5-yl]-6-(trifluoromethyl)uracil]
[1]; rate 0.0320 kg/ha
  Postemergence herbicidal rating, ABUTH: 9.0
[1]; rate 0.0620 kg/ha
  Postemergence herbicidal rating, ABUTH: 9.0
[2]; rate 0.0320 kg/ha
  Postemergence herbicidal rating, AMBEL: 9.0
[2]; rate 0.0620 kg/ha
  Postemergence herbicidal rating, AMBEL: 9.0
[3]; rate 0.0320 kg/ha
  Postemergence herbicidal rating, CASOB: 1.5
[3]; rate 0.0620 kg/ha
  Postemergence herbicidal rating, CASOB: 5.0
[4]; rate 0.0320 kg/ha
  Postemergence herbicidal rating, CHEAL: 8.0
[4]; rate 0.0620 kg/ha
  Postemergence herbicidal rating, CHEAL: 9.0
[5]; rate 0.0320 kg/ha
  Postemergence herbicidal rating, GALAP: 3.5
[5]; rate 0.0620 kg/ha
  Postemergence herbicidal rating, GALAP: 6.0
[6]; rate 0.0320 kg/ha
  Postemergence herbicidal rating, IPOHE: 8.0
[6]; rate 0.0620 kg/ha
  Postemergence herbicidal rating, IPOHE: 9.0
[7]; rate 0.0320 kg/ha
  Postemergence herbicidal rating, GLXMAW: 8.3
[7]; rate 0.0620 kg/ha
  Postemergence herbicidal rating, GLXMAW: 8.0
[8]; rate 0.0320 kg/ha
  Postemergence herbicidal rating, ORYSAT: 3.3
[8]; rate 0.0620 kg/ha
  Postemergence herbicidal rating, ORYSAT: 3.5
[9]; rate 0.0320 kg/ha
  Postemergence herbicidal rating, ZEAMX: 5.3
[9]; rate 0.0620 kg/ha
  Postemergence herbicidal rating, ZEAMX: 5.3
[10]; Rate 0.0620 kg/ha
  GALAP preemergence herbicidal rating: 0.5
[10]; Rate 0.1250 kg/ha
  GALAP preemergence herbicidal rating: 6.0
[10]; Rate 0.2500 kg/ha
  GALAP preemergence herbicidal rating: 9.0
[11]; Rate 0.0620 kg/ha
  ECHCG preemergence herbicidal rating: 9.0
[11]; Rate 0.1250 kg/ha
  ECHCG preemergence herbicidal rating: 9.0
[11]; Rate 0.2500 kg/ha
  ECHCG preemergence herbicidal rating: 9.0
[12]; Rate 0.0620 kg/ha
  SETVI preemergence herbicidal rating: 9.0
[12]; Rate 0.1250 kg/ha
  SETVI preemergence herbicidal rating: 9.0
[12]; Rate 0.2500 kg/ha
  SETVI preemergence herbicidal rating: 9.0
[13]; Rate 0.0620 kg/ha
  ORYSAT preemergence herbicidal rating: 5.3
[13]; Rate 0.1250 kg/ha
  ORYSAT preemergence herbicidal rating: 7.0
[13]; Rate 0.2500 kg/ha
  ORYSAT preemergence herbicidal rating: 8.0
[14]; Rate 0.0620 kg/ha
  TRZAWR preemergence herbicidal rating: 5.5
[14]; Rate 0.1250 kg/ha
  TRZAWR preemergence herbicidal rating: 8.0
[14]; Rate 0.2500 kg/ha
  TRZAWR preemergence herbicidal rating: 8.5

— US6706663B2, “Herbicidal 3-heterocyclic substituted benzisothiazole and benzisoxazole compounds” (Wyeth, priority 2000, dated 2004)
